Experimental findings from patent US20110183999A1, “NOVEL POLYMORPHIC FORMS OF METHYL CARBAMATE” (BAYER SCHERING PHARMA AKTIENGESELLSCHAFT, priority 2009, published 2011) are described below.

Series [1] can be described thus: Thermogravimetry (TGA) mass loss. The conditions noted are these: heating rate 10 Kmin^−1, open platinum crucibles, nitrogen purge. In kind it is physicochemical. The protocol:
The TGA measurements were carried out using TGA7 and Pyris-1-TGA thermobalances from Perkin-Elmer using a heating rate of 10 Kmin^−1. The measurements were carried out in open platinum crucibles, the purge gas used was nitrogen. There was no sample preparation.

Series [2] in a line: Thermodynamic and storage stability of the solid form. The conditions noted are these: also after processing to suspensions. In kind it is physicochemical.

In the case of `COC(=O)Nc1c(N)nc(-c2nn(Cc3ccccc3F)c3ncccc23)nc1N` [modification I, methyl {4,6-diamino-2-[1-(2-fluorobenzyl)-1H-pyrazolo[3,4-b]pyridin-3-yl]pyrimidin-5-yl}-carbamate], the Mass loss in series [1] is <0.5 % by weight. For the same compound, the “Stability of the solid form (thermodynamic / storage)” value in series [2] is “thermodynamically stable and storage-stable even after processing to suspensions”.

Regarding `COC(=O)Nc1c(N)nc(-c2nn(Cc3ccccc3F)c3ncccc23)nc1N` [modification II, methyl {4,6-diamino-2-[1-(2-fluorobenzyl)-1H-pyrazolo[3,4-b]pyridin-3-yl]pyrimidin-5-yl}carbamate], the Mass loss in series [1] is recorded as <0.5 % by weight. Same read-out and setting: under `COC(=O)Nc1c(N)nc(-c2nn(Cc3ccccc3F)c3ncccc23)nc1N` [modification III, methyl {4,6-diamino-2-[1-(2-fluorobenzyl)-1H-pyrazolo[3,4-b]pyridin-3-yl]pyrimidin-5-yl}carbamate] stands <0.5 % by weight.

Take `COC(=O)Nc1c(N)nc(-c2nn(Cc3ccccc3F)c3ncccc23)nc1N` [mesomorphous, Methyl {4,6-diamino-2-[1-(2-fluorobenzyl)-1H-pyrazolo[3,4-b]pyridin-3-yl]pyrimidin-5-yl}-carbamate, reference compound]: the Mass loss entry in series [1] is on record as “about 8 % by weight”. In addition, in series [2] (listed as mesomorphous form), the “Stability of the solid form (thermodynamic / storage)” value is “metastable”. As to `COC(=O)Nc1c(N)nc(-c2nn(Cc3ccccc3F)c3ncccc23)nc1N` [amorphous, methyl {4,6-diamino-2-[1-(2-fluorobenzyl)-1H-pyrazolo[3,4-b]pyridin-3-yl]pyrimidin-5-yl}carbamate], the Mass loss result in series [1] was “about 10 % by weight”. On the same count and under the same terms, with `COC(=O)Nc1c(N)nc(-c2nn(Cc3ccccc3F)c3ncccc23)nc1N` [modification IV, methyl {4,6-diamino-2-[1-(2-fluorobenzyl)-1H-pyrazolo[3,4-b]pyridin-3-yl]pyrimidin-5-yl}carbamate] the figure was <1 % by weight.
